Reference: ChEMBL document CHEMBL3132769, “Fragment growing to retain or alter the selectivity of anchored kinase hinge-binding fragments” (Medchemcomm, 2014)

What was measured:
[1] = biological target: T1, Inhibitor of nuclear factor kappa-B kinase subunit beta (Homo sapiens) (UniProt O14920); assay: Inhibition of human full length IKK beta expressed in baculovirus assessed as substrate phosphorylation using fluorescence-labelled peptides as substrate at 0.06 uM after 90 mins by microfluidic peptide phosphorylation assay
T1 sequence (whole entry): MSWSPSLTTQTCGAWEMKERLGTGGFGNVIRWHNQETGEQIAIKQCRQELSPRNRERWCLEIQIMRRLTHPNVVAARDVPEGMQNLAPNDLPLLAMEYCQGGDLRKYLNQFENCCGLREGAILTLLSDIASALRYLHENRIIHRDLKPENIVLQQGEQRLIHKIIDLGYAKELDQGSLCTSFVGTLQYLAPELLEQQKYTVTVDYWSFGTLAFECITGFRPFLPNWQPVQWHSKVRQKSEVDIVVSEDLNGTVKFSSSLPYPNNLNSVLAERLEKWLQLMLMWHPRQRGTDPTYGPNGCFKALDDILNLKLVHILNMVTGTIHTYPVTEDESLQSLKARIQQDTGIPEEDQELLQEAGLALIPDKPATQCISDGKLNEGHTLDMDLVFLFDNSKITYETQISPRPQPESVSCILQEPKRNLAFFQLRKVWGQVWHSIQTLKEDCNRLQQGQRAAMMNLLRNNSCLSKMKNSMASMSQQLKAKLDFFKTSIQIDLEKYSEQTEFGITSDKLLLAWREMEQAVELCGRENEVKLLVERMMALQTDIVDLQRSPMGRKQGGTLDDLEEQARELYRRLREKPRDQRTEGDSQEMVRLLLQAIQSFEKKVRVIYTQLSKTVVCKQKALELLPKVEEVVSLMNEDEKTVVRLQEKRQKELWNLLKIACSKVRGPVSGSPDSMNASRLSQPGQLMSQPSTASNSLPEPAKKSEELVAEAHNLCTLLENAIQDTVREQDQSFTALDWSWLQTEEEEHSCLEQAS

[2] = biological target: MAP kinase-activated protein kinase 2 (Homo sapiens) (UniProt P49137); assay: Inhibition of human full length MAPKAPK2 expressed in baculovirus assessed as substrate phosphorylation using fluorescence-labelled peptides as substrate at 0.2 uM after 90 mins by microfluidic peptide phosphorylation assay
[3] = biological target: T2, Serine/threonine-protein kinase D2 (Homo sapiens) (UniProt Q9BZL6); conditions: 0.1 uM
T2 sequence (whole entry): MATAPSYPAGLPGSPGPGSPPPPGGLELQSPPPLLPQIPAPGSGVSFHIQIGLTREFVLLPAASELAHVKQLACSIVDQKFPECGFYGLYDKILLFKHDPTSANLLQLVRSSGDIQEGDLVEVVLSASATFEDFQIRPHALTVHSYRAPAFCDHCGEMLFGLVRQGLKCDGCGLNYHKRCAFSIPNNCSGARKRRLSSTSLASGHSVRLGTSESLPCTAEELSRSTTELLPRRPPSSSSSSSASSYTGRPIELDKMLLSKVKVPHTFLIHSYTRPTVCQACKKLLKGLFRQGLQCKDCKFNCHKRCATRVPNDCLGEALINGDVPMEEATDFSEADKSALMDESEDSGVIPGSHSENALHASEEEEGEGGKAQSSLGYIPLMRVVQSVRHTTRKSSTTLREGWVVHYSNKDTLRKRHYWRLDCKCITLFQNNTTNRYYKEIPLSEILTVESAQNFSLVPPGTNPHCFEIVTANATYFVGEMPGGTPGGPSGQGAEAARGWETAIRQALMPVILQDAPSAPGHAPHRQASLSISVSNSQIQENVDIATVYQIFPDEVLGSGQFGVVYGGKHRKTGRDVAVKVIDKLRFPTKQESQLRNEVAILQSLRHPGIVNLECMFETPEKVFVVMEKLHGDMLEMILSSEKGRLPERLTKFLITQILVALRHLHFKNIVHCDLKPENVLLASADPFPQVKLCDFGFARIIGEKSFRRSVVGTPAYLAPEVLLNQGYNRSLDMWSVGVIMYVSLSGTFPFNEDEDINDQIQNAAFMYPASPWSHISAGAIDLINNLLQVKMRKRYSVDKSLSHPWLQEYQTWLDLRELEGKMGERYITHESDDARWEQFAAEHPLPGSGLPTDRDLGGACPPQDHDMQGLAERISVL
Description: Inhibition of human full length PKD2 expressed in baculovirus assessed as substrate phosphorylation using fluorescence-labelled peptides as substrate at 0.1 uM after 90 mins by microfluidic peptide phosphorylation assay

[4] = biological target: T3, MAP kinase-activated protein kinase 5 (Homo sapiens) (UniProt Q8IW41); assay: Inhibition of human full length PRAK expressed in baculovirus assessed as substrate phosphorylation using fluorescence-labelled peptides as substrate at 9 uM after 90 mins by microfluidic peptide phosphorylation assay
T3 sequence (whole entry): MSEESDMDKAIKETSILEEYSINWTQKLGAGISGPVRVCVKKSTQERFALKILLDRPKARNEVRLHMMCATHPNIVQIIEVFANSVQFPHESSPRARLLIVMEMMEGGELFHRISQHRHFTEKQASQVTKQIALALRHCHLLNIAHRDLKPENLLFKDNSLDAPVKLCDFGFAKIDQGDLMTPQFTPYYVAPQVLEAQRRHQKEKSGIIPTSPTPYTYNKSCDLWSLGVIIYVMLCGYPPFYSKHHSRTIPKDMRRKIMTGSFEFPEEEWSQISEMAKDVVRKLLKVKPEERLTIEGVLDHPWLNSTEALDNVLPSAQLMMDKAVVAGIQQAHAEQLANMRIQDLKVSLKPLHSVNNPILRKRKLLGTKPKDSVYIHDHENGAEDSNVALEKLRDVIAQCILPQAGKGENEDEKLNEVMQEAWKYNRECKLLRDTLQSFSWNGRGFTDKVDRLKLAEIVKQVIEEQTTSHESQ

[5] = biological target: Hepatocyte growth factor receptor (Homo sapiens) (UniProt P08581); assay: Inhibition of human MET cytoplasmic domain expressed in baculovirus assessed as substrate phosphorylation using fluorescence-labelled peptides as substrate at 1000 uM after 90 mins by microfluidic peptide phosphorylation assay
Hepatocyte growth factor receptor (Homo sapiens), sequence (P08581 whole entry, the tested form may be a part): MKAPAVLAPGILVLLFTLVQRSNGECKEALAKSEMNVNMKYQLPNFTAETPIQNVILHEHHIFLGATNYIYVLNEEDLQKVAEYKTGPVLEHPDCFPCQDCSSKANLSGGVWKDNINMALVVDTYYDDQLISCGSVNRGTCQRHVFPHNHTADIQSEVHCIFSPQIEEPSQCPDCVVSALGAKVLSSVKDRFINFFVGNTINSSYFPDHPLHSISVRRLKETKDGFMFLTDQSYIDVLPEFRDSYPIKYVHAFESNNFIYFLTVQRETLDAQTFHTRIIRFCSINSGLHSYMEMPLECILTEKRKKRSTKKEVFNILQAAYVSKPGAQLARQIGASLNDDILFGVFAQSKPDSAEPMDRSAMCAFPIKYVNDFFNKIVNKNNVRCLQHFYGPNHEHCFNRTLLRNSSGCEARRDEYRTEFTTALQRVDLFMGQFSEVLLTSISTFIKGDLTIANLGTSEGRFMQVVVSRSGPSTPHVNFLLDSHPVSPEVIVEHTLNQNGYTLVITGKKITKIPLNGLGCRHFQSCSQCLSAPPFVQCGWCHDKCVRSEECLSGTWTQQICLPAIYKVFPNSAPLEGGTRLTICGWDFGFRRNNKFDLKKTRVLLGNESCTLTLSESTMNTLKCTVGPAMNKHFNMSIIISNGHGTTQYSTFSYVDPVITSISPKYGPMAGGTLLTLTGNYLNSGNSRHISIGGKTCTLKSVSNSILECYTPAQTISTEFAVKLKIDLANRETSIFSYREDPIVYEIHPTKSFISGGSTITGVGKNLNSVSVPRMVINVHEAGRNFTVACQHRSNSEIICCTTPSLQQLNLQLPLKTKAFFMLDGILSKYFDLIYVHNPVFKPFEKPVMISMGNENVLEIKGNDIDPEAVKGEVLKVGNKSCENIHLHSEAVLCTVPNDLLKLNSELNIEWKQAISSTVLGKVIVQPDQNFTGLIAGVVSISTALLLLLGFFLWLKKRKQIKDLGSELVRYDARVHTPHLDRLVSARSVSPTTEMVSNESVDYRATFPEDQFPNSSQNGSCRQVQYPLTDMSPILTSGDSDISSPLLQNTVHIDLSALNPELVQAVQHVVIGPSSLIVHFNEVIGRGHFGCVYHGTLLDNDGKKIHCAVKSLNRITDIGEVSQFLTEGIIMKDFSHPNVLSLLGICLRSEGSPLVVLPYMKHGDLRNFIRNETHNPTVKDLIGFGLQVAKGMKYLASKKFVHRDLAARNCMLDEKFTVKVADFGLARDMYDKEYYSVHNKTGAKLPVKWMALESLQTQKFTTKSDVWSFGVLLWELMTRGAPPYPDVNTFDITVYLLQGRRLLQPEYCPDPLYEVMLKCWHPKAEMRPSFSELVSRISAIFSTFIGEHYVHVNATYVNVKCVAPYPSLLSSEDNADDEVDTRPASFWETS

MAP kinase-activated protein kinase 2 (Homo sapiens), sequence (P49137 whole entry, looked up): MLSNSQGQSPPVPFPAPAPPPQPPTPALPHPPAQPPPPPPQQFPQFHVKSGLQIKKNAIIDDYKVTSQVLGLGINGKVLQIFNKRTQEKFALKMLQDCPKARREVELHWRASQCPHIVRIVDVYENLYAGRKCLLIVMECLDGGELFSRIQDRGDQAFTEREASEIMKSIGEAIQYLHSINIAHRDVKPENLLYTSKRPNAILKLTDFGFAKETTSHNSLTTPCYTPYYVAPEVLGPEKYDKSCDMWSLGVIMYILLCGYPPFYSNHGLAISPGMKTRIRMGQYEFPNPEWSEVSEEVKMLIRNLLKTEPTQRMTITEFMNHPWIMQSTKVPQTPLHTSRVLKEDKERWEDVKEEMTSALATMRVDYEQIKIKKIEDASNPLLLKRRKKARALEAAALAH

SMILES: NC1(Cc2ccc(Cl)cc2)CCN(c2ncnc3[nH]ccc23)CC1
- inhibition [1]: 2%

SMILES: Clc1ccc(C2(c3ccc(-c4ncnc5[nH]cnc45)cc3)CCNCC2)cc1
- inhibition [2]: 10.5%

SMILES: C[C@H](CN(C)C)Oc1nc(Nc2cc3cccc(Cl)c3cn2)cnc1C#N
- inhibition [3]: 0%

SMILES: NCC1CN(c2ncnc3[nH]c4cnccc4c23)CCO1 (stereo not given)
- inhibition [4]: 0%

SMILES: c1cnc2[nH]ccc2c1
- inhibition [5]: 55%
